Consider 18 compounds from patent US10420844B2, “Peptide pharmaceuticals” (Mederis Diabetes LLC, priority 2011, dated 2019).

The conditions of data set [1]: in water; cited from earlier work.
Data set [2] deals with T1, mu opioid receptor (Homo sapiens, UniProt P35372).
T1 construct: Cerep SA (contract research organization)
Put plainly: mu opioid receptor cellular assay (MOP, agonist and antagonist mode), cAMP readout, Cerep. Format: cell-based. On the procedure:
Compounds were weighed precisely in an amount of approximately 2 mg and assayed in standard cellular assays by the contract research organization Cerep, Inc. (Pullman, Wash.) as executed at their subsidiary, Cerep SA (Le Bois l'Eveque, France). The readout is the amount of cAMP generated in the cells treated with the test compounds, in either agonist or antagonist mode. The assays used were the mu opioid receptor cellular assay (MOP in agonist and antagonist mode), the delta2 opioid receptor cellular assay (DOP in agonist and antagonist mode) and the kappa opioid receptor cellular assay (KOP in agonist and antagonist mode). The assays used are described in Wang, J. B., et al. (1994) FEBS Lett 338: 217-222, Law, P. Y. and Loh, H. H. (1993) Mol Pharmacol 43: 684-693, and Avidor-Reiss, T., et al. (1995) FEBS Lett 361: 70-74. The stimulant for the cells in the DOR antagonist assay was 3×10E-8M DPDPE, a well-accepted DOR literature standard.

Data set [3] in a line: blood PO4 and Ca levels in rats after a single sc injection. Type of data set: in vivo, rat. The note with it: rat. The source says:
Following the method of Frolik, C.

[4] abbreviates: MOP agonist mode and DOP antagonist mode.

Non-standard residues stand in square brackets, D forms with d. Residues, ends and D or L forms follow the SMILES beside them. *: point of attachment. GlcA(β-D,1-O-dodecyl) = CCCCCCCCCCCCO[C@@H]1O[C@H](C(=O)*)[C@@H](O)[C@H](O)[C@H]1O; GlcA(β1-O-octyl) = CCCCCCCCO[C@@H]1O[C@H](C(=O)*)[C@@H](O)[C@H](O)[C@H]1O; βGlcA(1-OMe) = CO[C@@H]1O[C@H](C(=O)*)[C@@H](O)[C@H](O)[C@H]1O; Phe(2,4,6-Me3) = Cc1cc(C)c(C[C@H](N)C(=O)O)c(C)c1; Dmt = Cc1cc(O)cc(C)c1C[C@H](N)C(=O)O; Tic = O=C(O)[C@@H]1Cc2ccccc2CN1; Aib = CC(C)(N)C(=O)O; NHBn = c1ccc(CN*)cc1

T1 sequence (P35372 whole entry): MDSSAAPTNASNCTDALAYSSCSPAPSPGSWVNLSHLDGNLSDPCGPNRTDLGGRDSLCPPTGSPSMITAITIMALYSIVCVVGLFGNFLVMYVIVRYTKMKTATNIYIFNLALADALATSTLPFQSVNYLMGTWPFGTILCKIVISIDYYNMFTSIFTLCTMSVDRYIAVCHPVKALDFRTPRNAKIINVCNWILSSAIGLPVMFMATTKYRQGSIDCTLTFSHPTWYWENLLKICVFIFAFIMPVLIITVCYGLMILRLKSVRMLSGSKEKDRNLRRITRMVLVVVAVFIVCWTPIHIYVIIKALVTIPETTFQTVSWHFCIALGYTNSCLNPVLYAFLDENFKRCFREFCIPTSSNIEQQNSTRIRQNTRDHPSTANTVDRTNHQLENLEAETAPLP

As to `CCCCCCCCO[C@@H]1O[C@H](CO)[C@@H](O[C@H]2O[C@H](CO)[C@@H](O)[C@H](O)[C@H]2O)[C@H](O)[C@H]1O` [Octyl maltoside], in data set [1], the CMC was 19.5 mM. With `CO[C@@H]1O[C@H](C(=O)NCCCC[C@H](NC(=O)[C@H](Cc2ccccc2)NC(=O)[C@H](Cc2ccccc2)NC(=O)[C@@H]2Cc3ccccc3CN2C(=O)[C@@H](N)Cc2c(C)cc(O)cc2C)C(N)=O)[C@@H](O)[C@H](O)[C@H]1O` [EU-A189, 2′,6′-dimethyl-L-tyrosyl-L-1,2,3,4-tetrahydroisoquinoline-3-carbonyl-L-phenylalanyl-L-phenylalanys-Nε-(1′-methyl β-D-glucuronyl)-L-lysyl-amide], the Characterization result in data set [2] (setting [4]) is “Pure MOP Ag; pure DOP antag”.

Regarding “Dmt-Tic-Phe-Phe-Lys(C12-glucuronyl)-NH2 [EU-A190]”, the Characterization entry in data set [2] (setting [4]) is listed as “Pure MOP Ag; pure DOP antag”.

Consider `CO[C@@H]1O[C@H](C(=O)NCCCC[C@@H](NC(=O)[C@@H](N)Cc2c(C)cc(O)cc2C)C(=O)N[C@@H](Cc2c(C)cc(C)cc2C)C(=O)N[C@@H](Cc2ccccc2)C(N)=O)[C@@H](O)[C@H](O)[C@H]1O` [EU-A107, Dmt-D-Lys(C1-glucuronyl)-Tmp-Phe-NH2] (H-[Dmt][dK](βGlcA(1-OMe))[Phe(2,4,6-Me3)]F-NH2; N-terminus assumed), for which, in data set [2] (MOP agonist/antagonist modes), the Characterization result was “Agonist”. Consider Sucrose dodecanoate, for which the CMC in data set [1] was 0.3 mM. In the case of `CCCCCCCCCCCCO[C@@H]1O[C@H](CO)[C@@H](O[C@H]2O[C@H](CO)[C@@H](O)[C@H](O)[C@H]2O)[C@H](O)[C@H]1O` [Dodecyl-β-D-maltoside], the CMC in data set [1] is given as 0.17 mM. As to `CC[C@H](C)[C@H](NC(=O)[C@H](CCC(=O)O)NC(=O)[C@H](CO)NC(=O)[C@@H](NC(=O)[C@@H](N)CO)C(C)C)C(=O)N[C@@H](CCC(N)=O)C(=O)N[C@@H](CC(C)C)C(=O)N[C@@H](CCSC)C(=O)N[C@@H](Cc1cnc[nH]1)C(=O)N[C@@H](CC(N)=O)C(=O)N[C@@H](CC(C)C)C(=O)NCC(=O)N[C@@H](CCCCN)C(=O)N[C@@H](Cc1cnc[nH]1)C(=O)N[C@@H](CC(C)C)C(=O)N[C@@H](CC(N)=O)C(=O)N[C@@H](CO)C(=O)N[C@@H](CCSC)C(=O)N[C@@H](CCC(=O)O)C(=O)N[C@@H](CCCN=C(N)N)C(=O)N[C@H](C(=O)N[C@@H](CCC(=O)O)C(=O)N[C@@H](Cc1c[nH]c2ccccc12)C(=O)N[C@@H](CC(C)C)C(=O)N[C@@H](CCCN=C(N)N)C(=O)N[C@@H](CCCCN)C(=O)N[C@@H](CCCCN)C(=O)N[C@@H](CC(C)C)C(=O)N[C@@H](CCC(N)=O)C(=O)N[C@@H](CC(=O)O)C(=O)N[C@H](C(=O)N[C@@H](Cc1cnc[nH]1)C(=O)N[C@@H](CC(N)=O)C(=O)N[C@@H](Cc1ccccc1)C(=O)O)C(C)C)C(C)C` [PTH, reference compound], the “blood calcium levels versus control (saline/vehicle)” value in data set [3] (sc, 80 (PTH, EU-232) or 320 (EU-232), all time points) was “No groups were statistically significantly different from control”. Moreover, in data set [3] (single sc injection, 80 mcg, PO4 did not further diminish after 1 hour), the “blood PO4 levels, 80 mcg groups” value is listed as “transient but not statistically significant decrease”. For the compound `CCCCCCCCCCCCCCO[C@@H]1O[C@H](CO)[C@@H](O[C@@H]2O[C@@H](CO)[C@H](O)[C@@H](O)[C@@H]2O)[C@H](O)[C@H]1O` (stereo in doubt) [Tetradecyl maltoside], in data set [1], the CMC was 0.01 mM. With `CO[C@@H]1O[C@H](C(=O)NCCCC[C@H](NC(=O)[C@H](Cc2c(C)cc(C)cc2C)NC(=O)[C@@H]2CCCN2C(=O)[C@@H](N)Cc2c(C)cc(O)cc2C)C(N)=O)[C@@H](O)[C@H](O)[C@H]1O` [EU-A101, Dmt-Pro-Tmp-Lys(C1-glucuronyl)-NH2] (H-[Dmt]P[Phe(2,4,6-Me3)]K(βGlcA(1-OMe))-NH2; N-terminus assumed), in data set [2] (MOP agonist/antagonist modes), the Characterization entry is reported as “pure agonist”. In the case of `CCCCCCCCCCCCCO[C@@H]1O[C@H](CO)[C@@H](OC2OC(CO)C(O)C(O)C2O)[C@H](O)[C@H]1O` (stereo in doubt) [Tridecyl maltoside], the CMC in data set [1] is recorded as 0.03 mM. As for `CCCCCCCCCCCCO[C@@H]1O[C@H](C(=O)NCCCC[C@H](NC(=O)[C@H](Cc2c(C)cc(C)cc2C)NC(=O)[C@@H]2CCCN2C(=O)[C@@H](N)Cc2c(C)cc(O)cc2C)C(N)=O)[C@@H](O)[C@H](O)[C@H]1O` [EU-A103, Dmt-Pro-Tmp-Lys(C12-glucuronyl)-NH2] (H-[Dmt]P[Phe(2,4,6-Me3)]K(GlcA(β-D,1-O-dodecyl))-NH2; N-terminus assumed), the Characterization entry in data set [2] (MOP agonist/antagonist modes) is given as “pure antagonist”. In the case of `CO[C@@H]1O[C@H](C(=O)NCCCC[C@H](NC(=O)[C@H](Cc2ccccc2)NC(=O)[C@@H]2Cc3ccccc3CN2C(=O)[C@@H](N)Cc2c(C)cc(O)cc2C)C(=O)NC(C)(C)C(N)=O)[C@@H](O)[C@H](O)[C@H]1O` [EU-A600, Dmt-Tic-Phe-Lys(C1-glucuronyl)-Aib-NH2] (H-[Dmt][Tic]FK(βGlcA(1-OMe))[Aib]-NH2), the Characterization entry in data set [2] (setting [4]) is “Pure MOP Ag; pure DOP antag”. As to `CCCCCCCCCCO[C@@H]1O[C@H](CO)[C@@H](O[C@H]2O[C@H](CO)[C@@H](O)[C@H](O)[C@H]2O)[C@H](O)[C@H]1O` [Decyl maltoside], the CMC in data set [1] is 1.8 mM.

Consider `CO[C@@H]1O[C@H](C(=O)NCCCC[C@H](NC(=O)[C@H](Cc2ccccc2)NC(=O)[C@@H]2Cc3ccccc3CN2C(=O)[C@@H](N)Cc2c(C)cc(O)cc2C)C(=O)NCc2ccccc2)[C@@H](O)[C@H](O)[C@H]1O` [EU-A620, Dmt-Tic-Phe-Lys(C1-glucuronyl)-NHCH2Ph] (H-[Dmt][Tic]FK(βGlcA(1-OMe))-NHBn), for which the Characterization result in data set [2] (setting [4]) is “Pure MOP Ag; pure DOP antag”.

As to `CCCCCCCCO[C@@H]1O[C@H](C(=O)NCCCC[C@H](NC(=O)[C@H](Cc2ccccc2)NC(=O)[C@@H]2Cc3ccccc3CN2C(=O)[C@@H](N)Cc2c(C)cc(O)cc2C)C(N)=O)[C@@H](O)[C@H](O)[C@H]1O` [EU-A180, Dmt-Tic-Phe-Lys(C8-glucuronyl)-NH2] (H-[Dmt][Tic]FK(GlcA(β1-O-octyl))-NH2), the Characterization result in data set [2] (setting [4]) was “Pure MOP Ag; pure DOP antag”. As to `CCCCCCCCO[C@@H]1O[C@H](C(=O)NCCCC[C@H](NC(=O)[C@H](Cc2c(C)cc(C)cc2C)NC(=O)[C@@H]2CCCN2C(=O)[C@@H](N)Cc2c(C)cc(O)cc2C)C(N)=O)[C@@H](O)[C@H](O)[C@H]1O` [EU-A102, 2′,6′-dimethyl-L-tyrosyl-prolyl-2′,4′,6′-trimethyl-L-phenylalanyl-Nε-(1′-octyl β-D-glucuronyl)-L-lysine amide] (H-[Dmt]P[Phe(2,4,6-Me3)]K(GlcA(β1-O-octyl))-NH2), in data set [2] (MOP agonist/antagonist modes), the Characterization entry is recorded as “partial agonist”. With `CO[C@@H]1O[C@H](C(=O)NCCCC[C@@H](NC(=O)[C@H](Cc2ccccc2)NC(=O)[C@@H]2Cc3ccccc3CN2C(=O)[C@@H](N)Cc2c(C)cc(O)cc2C)C(=O)NCc2ccccc2)[C@@H](O)[C@H](O)[C@H]1O` [EU-A639, Dmt-Tic-Phe-D-Lys(C1-glucuronyl)-NHCH2Ph] (H-[Dmt][Tic]F[dK](βGlcA(1-OMe))-NHBn; N-terminus assumed), the Characterization entry in data set [2] (setting [4]) is given as “Pure MOP Ag; pure DOP antag”. Turning to “Dmt-Tic-Phe-D-Lys(C1-glucuronyl)-Aib-NH2 [EU-A615]”, the Characterization result in data set [2] (setting [4]) is “Pure MOP Ag; pure DOP antag”.
